{
  "source": "patent US11021628B2",
  "about": "“Coating composition containing methyl cellulose, method for producing the same, and solid preparation” (Shin-Etsu Chemical Co., Ltd., priority 2016, dated 2021)",
  "assay": "Dissolution Test, Paddle method, Japanese Pharmacopoeia Sixteenth Edition",
  "type": "physicochemical",
  "conditions": "acetaminophen, water, paddle 100 rpm",
  "method": "The coated granules was subjected to the dissolution test in accordance with Dissolution Test, Paddle method in the Japanese Pharmacopoeia Sixteenth Edition at a paddle rotation rate of 100 rpm with water as the test liquid, and the drug concentration was quantitatively determined at a measurement wavelength of 244 nm by using an ultraviolet spectrophotometer (UV-1700, manufactured by Shimadzu Corporation).\nAs Reference Example 1, the dissolution rates of an acetaminophen powder after 1 minute and 10 minutes are also shown in Table 3.",
  "data": [
    {"smiles": "CC(=O)Nc1ccc(O)cc1", "note": "[Ref. Ex. 1, acetaminophen]", "values": [
      {"measurement": "dissolution ratio after 1 minute", "setting": "1 minute", "result": 48.0, "unit": "%"},
      {"measurement": "dissolution ratio after 10 minutes", "setting": "10 minutes", "result": 99.6, "unit": "%"}
    ]}
  ]
}
